Test results from the CheMixHub viscosity set.

Assay: xn = mol fraction of the nth substance listed

CCCOC(=O)c1ccccc1 + CCCCCCCCCCCCCC
101 kPa
Details	viscosity [mPa·s]
298.15 K, x2 = 0.0348	2.302
298.15 K, x2 = 0.0666	2.257
298.15 K, x2 = 0.0955	2.215
298.15 K, x2 = 0.1309	2.171
298.15 K, x2 = 0.1608	2.137
298.15 K, x2 = 0.1965	2.099
298.15 K, x2 = 0.2367	2.06
298.15 K, x2 = 0.2722	2.029
298.15 K, x2 = 0.307	2.003
298.15 K, x2 = 0.3527	1.974
298.15 K, x2 = 0.401	1.948
298.15 K, x2 = 0.4477	1.928
298.15 K, x2 = 0.4973	1.916
298.15 K, x2 = 0.549	1.906
298.15 K, x2 = 0.5955	1.905
298.15 K, x2 = 0.6516	1.908
298.15 K, x2 = 0.7159	1.921
298.15 K, x2 = 0.7647	1.934
298.15 K, x2 = 0.8531	1.97
308.15 K, x2 = 0.0488	1.84
308.15 K, x2 = 0.0735	1.808
308.15 K, x2 = 0.1091	1.77
308.15 K, x2 = 0.148	1.734
308.15 K, x2 = 0.1734	1.714
308.15 K, x2 = 0.215	1.682
308.15 K, x2 = 0.2514	1.659
308.15 K, x2 = 0.2896	1.639
308.15 K, x2 = 0.3376	1.62
308.15 K, x2 = 0.3703	1.608
308.15 K, x2 = 0.4154	1.596
308.15 K, x2 = 0.4616	1.587
308.15 K, x2 = 0.5232	1.58
308.15 K, x2 = 0.572	1.58
308.15 K, x2 = 0.6124	1.582
308.15 K, x2 = 0.6769	1.588
308.15 K, x2 = 0.7367	1.601
308.15 K, x2 = 0.8128	1.623
308.15 K, x2 = 0.8907	1.652
318.15 K, x2 = 0.0558	1.521
318.15 K, x2 = 0.0578	1.517
318.15 K, x2 = 0.0908	1.491
318.15 K, x2 = 0.1258	1.464
318.15 K, x2 = 0.159	1.442
318.15 K, x2 = 0.1985	1.418
318.15 K, x2 = 0.2344	1.399
318.15 K, x2 = 0.2777	1.379
318.15 K, x2 = 0.3162	1.364
318.15 K, x2 = 0.3637	1.348
318.15 K, x2 = 0.4065	1.337
318.15 K, x2 = 0.4576	1.328
318.15 K, x2 = 0.5191	1.321
318.15 K, x2 = 0.5622	1.319
318.15 K, x2 = 0.6149	1.32
318.15 K, x2 = 0.68	1.325
318.15 K, x2 = 0.7358	1.332
318.15 K, x2 = 0.8096	1.347
318.15 K, x2 = 0.9298	1.382

CC(C)c1ccccc1 + CCCCCCCCCCCCCCCC
viscosity [mPa·s], 100 kPa
Details	x2 = 0.0536	x2 = 0.1093	x2 = 0.2207	x2 = 0.2969	x2 = 0.4217	x2 = 0.5376	x2 = 0.6083	x2 = 0.7347	x2 = 0.823	x2 = 0.8933
298.15 K	0.834	0.921	1.117	1.249	1.525	1.815	2.002	2.356	2.602	2.783
308.15 K	0.77	0.846	1.018	1.136	1.348	1.561	1.687	1.932	2.098	2.236
318.15 K	0.688	0.76	0.904	1.003	1.176	1.34	1.444	1.629	1.756	1.859

CCCCCCCCCCCCCCCCCCCC + CCCCCCCCCCCCCCCC
viscosity [mPa·s], 101.3 kPa
Details	x1 = 0.2	x1 = 0.4	x1 = 0.5	x1 = 0.599	x1 = 0.8
293.2 K	3.875	–	–	–	–
303.2 K	3.045	3.481	3.77	4.065	–
313.2 K	2.459	2.785	3.011	3.223	3.602

CCCCOC(C)=O + CCCCCCCCCCCCCCCC
298.15 K, 101.3 kPa
Details	viscosity [mPa·s]
x1 = 0.0797	2.778
x1 = 0.127	2.606
x1 = 0.2518	2.227
x1 = 0.3552	1.944
x1 = 0.4446	1.716
x1 = 0.5252	1.539
x1 = 0.5544	1.484
x1 = 0.594	1.39
x1 = 0.7165	1.149
x1 = 0.8169	0.9655
x1 = 0.8982	0.834
x1 = 0.952	0.7259

C=COC(C)=O + CCCCCCCCCCO
303.15 K, 101.33 kPa
Details	viscosity [mPa·s]
x1 = 0.1013	6.774
x1 = 0.1998	4.804
x1 = 0.3007	3.437
x1 = 0.3991	2.488
x1 = 0.5006	1.793
x1 = 0.6004	1.31
x1 = 0.6957	0.952
x1 = 0.8003	0.682
x1 = 0.904	0.489

CCCN + CCCCCCCCCCO
viscosity [mPa·s], 101.33 kPa
Details	x1 = 0.0915	x1 = 0.1817	x1 = 0.283	x1 = 0.3906	x1 = 0.4858	x1 = 0.59	x1 = 0.718	x1 = 0.8181	x1 = 0.9058
303.15 K	7.465	6.249	5.036	3.906	3.037	2.211	1.384	0.8865	0.5706
313.15 K	5.86	4.82	3.89	2.973	2.284	1.654	1.051	0.7052	0.481

C=COC(C)=O + CCCCCCCCO
303.15 K, 101.33 kPa
Details	viscosity [mPa·s]
x1 = 0.1001	4.448
x1 = 0.2008	3.155
x1 = 0.3002	2.302
x1 = 0.4017	1.705
x1 = 0.4997	1.279
x1 = 0.6008	0.965
x1 = 0.6993	0.743
x1 = 0.7981	0.577
x1 = 0.8965	0.459

CCCCOC(C)=O + CCCCCCCCO
viscosity [mPa·s], 101 kPa
Details	x2 = 0.085	x2 = 0.1729	x2 = 0.2638	x2 = 0.3579	x2 = 0.4554	x2 = 0.5564	x2 = 0.6611	x2 = 0.7698	x2 = 0.8827
298.15 K	0.884	1.13	–	1.808	2.27	2.845	3.578	4.535	5.81
303.15 K	0.813	1.03	1.298	1.623	2.017	2.505	3.119	3.918	4.98
308.15 K	0.748	0.938	1.171	1.453	1.789	2.197	2.71	3.378	4.252
313.15 K	0.689	0.855	1.059	1.305	1.591	1.938	2.372	2.932	3.66
